Key:
[1] = tested on: Enteroccus faecalis ATCC 29212; assay: agar diffusion test with impregnated cellulose discs; type: cell-based; conditions: incl. 6 mm disc
[2] = tested on: Salmonella typhimurium ATCC 13311; assay: as above; type: cell-based; conditions: incl. 6 mm disc
[3] = tested on: Penicillium solitum Wild strain; assay: as above; type: cell-based; conditions: incl. 6 mm disc
Leveillula taurica = assay: control of powdery mildew in peppers grown in greenhouses; type: in vivo; conditions: doses of 1000 and 2000 ppm; peppers in greenhouse; reference Ciproconazol/Triadimenol
Description: Some of these tests were especially significant, such as the result against powdery mildew in peppers grown in greenhouses in Almeria. The relevance of the data obtained is based on the scarcity of effective and non-synthetic systems that control this disease (caused by Leveillula taurica).
In the case of this test, spray guns were used, via the greenhouse irrigation system, to apply solutions of 1000 ppm and 2000 ppm of PTS and PTSO, with a nutrient broth volume of 20, 30, 40 l/parcel, depending on the application. These solutions were distributed in parcels of 4 rows, located in the zone of the greenhouse with a greater incidence of powdery mildew, while a reference product was applied in the rest of the warehouse: Ciproconazol (Caddy 10 WG at 10 gr/100 l) for the first and second application, Triadimenol (Bayfidan 25 EC at 25 ml/100 l) for the third application and Ciproconazol/Triadimenol for the final application.

Penicillium digitatum [4] = assay: reduction of spores in suspension in absence or presence of organic matter; type: cell-based
Description: (§1) In addition, under the real conditions of a disinfecting bath for boxes, crates and containers, as well as for the disinfection of rooms and work surfaces, organic material (soil residue, rotten fruit, leaves etc.) is generally present, which can reduce the action of the disinfectant agent. Therefore, the effectiveness of PTS and PTSO has also been assessed in the presence of organic matter on two pathogens that cause post-harvest rot of stone fruit (Penicillium expansum) and citrus fruit (Penicillium digitatum).

Penicillium expansum = assay: as above; type: cell-based
Description: as §1

Penicillium digitatum [5] = assay: post-harvest rotting of inoculated oranges (Navelina), immersion treatment; type: in vivo
Description: (§2) This example considers the effectiveness of the active natural principles PTS and PTSO in two different doses for the control of post-harvest rotting of oranges ([…] variety), caused by controlled artificial inoculation with the fungi Penicillium digitatum, Penicillium expansum, Phytophthora citrophthora and Geotrichum candidum, the principal pathogens of this fruit. The inoculation of the oranges was carried out with suspensions of spores of the different wild fungal strains selected, according to the methodology described below. The first step was the isolation and identification of the fungal strains used in the study. The strains of filamentous fungi used in these tests (Penicillium digitatum, Penicillium italicum and Phytophthora citrophthora) were isolated from oranges affected by rot. In these isolation processes, it was not possible to detect any strain belonging to Geotrichum candidum, as a result of which it was necessary to obtain the latter substance from the Spanish Collection of Standard Cultures, where it is identified by reference CECT 1102. […] To promote the implantation of the inoculum of Geotrichum candidum, 200 ppm of cyclohexamide was added to the inoculum prior to its inoculation. […] The assessment of the effectiveness of PTS and PTSO comprised counting of the number of fruits affected by rot in the inoculated zone, to determine the percentage of fruit affected for each treatment and fungus inoculated, and expressing this effectiveness as a percentage of reduction of the affected fruit.

Penicillium italicum = assay: as above; type: in vivo
Description: as §2

[6] = tested on: Fungi mixture (P. expansum, P. italicum, P. digitatum and A. Alternata); assay: disinfection of containers stored inside the rooms by fogging
[7] = tested on: plants inoculated with mycorrhizal fungi; conditions: in vivo
[8] = PTS 750 ppm 1 min., organic matter Absence, 0 hours
[9] = PTS 750 ppm 1 min., organic matter Absence, 1 hour
[10] = PTS 750 ppm 1 min., organic matter Absence, 2 hours
[11] = PTS 750 ppm 1 min., organic matter Absence, 3 hours
[12] = PTS 750 ppm 1 min., organic matter Presence, 0 hours
[13] = PTS 750 ppm 1 min., organic matter Presence, 1 hour
[14] = PTS 750 ppm 1 min., organic matter Presence, 2 hours
[15] = PTS 750 ppm 1 min., organic matter Presence, 3 hours
[16] = 1600 ppm, 5 days of treatment at 20° C., title: treated with PTSO
[17] = 1600 ppm, 7 days of treatment at 20° C., title: treated with PTSO
[18] = 2500 ppm, 5 days of treatment at 20° C., title: treated with PTSO
[19] = 2500 ppm, 7 days of treatment at 20° C., title: treated with PTSO
[20] = 1600 ppm, 4 days at 20° C., title: treated with PTSO
[21] = 2500 ppm, 4 days at 20° C., title: treated with PTSO
[22] = PTSO 2000 ppm 1 min., organic matter Absence, 0 hours
[23] = PTSO 2000 ppm 1 min., organic matter Absence, 1 hour
[24] = PTSO 2000 ppm 1 min., organic matter Absence, 2 hours
[25] = PTSO 2000 ppm 1 min., organic matter Absence, 3 hours
[26] = PTSO 2000 ppm 1 min., organic matter Presence, 0 hours
[27] = PTSO 2000 ppm 1 min., organic matter Presence, 1 hour
[28] = PTSO 2000 ppm 1 min., organic matter Presence, 2 hours
[29] = PTSO 2000 ppm 1 min., organic matter Presence, 3 hours

With CCCS[S+]([O-])CCC (stereo not shown) [PTS, Propyl Propyl Thiosulfinate] the “diameter of the microbial inhibition halo” value ([1]; 60 ppm) was 15 mm, the “diameter of the microbial inhibition halo” value ([1]; 125 ppm) was 22 mm and the “diameter of the microbial inhibition halo” value ([1]; 250 ppm) was 26 mm. For the same compound, the “diameter of the microbial inhibition halo” value ([1]; 500 ppm) was 30 mm, the “diameter of the microbial inhibition halo” value ([1]; 1000 ppm) was 30 mm and the “diameter of the microbial inhibition halo” value ([2]; 60 ppm) was 11 mm. The “diameter of the microbial inhibition halo” value ([2]; 125 ppm) was 15 mm, the “diameter of the microbial inhibition halo” value ([2]; 250 ppm) was 22 mm and the “diameter of the microbial inhibition halo” value ([2]; 500 ppm) was 23 mm. The “diameter of the microbial inhibition halo” value ([2]; 1000 ppm) was 25 mm, the “diameter of the microbial inhibition halo” value ([3]; 60 ppm) was 0 mm and the “diameter of the microbial inhibition halo” value ([3]; 125 ppm) was 11 mm. For the same compound, the “diameter of the microbial inhibition halo” value ([3]; 250 ppm) was 16 mm, the “diameter of the microbial inhibition halo” value ([3]; 500 ppm) was 28 mm and the “diameter of the microbial inhibition halo” value ([3]; 1000 ppm) was 35 mm. For the same compound, the “control of powdery mildew, as % of the effectiveness of the reference product” value (Leveillula taurica) was 92%, the “Reduction of the population (%)” value (Penicillium digitatum [4]; [8]) was 100% and the “Reduction of the population (%)” value (Penicillium digitatum [4]; [9]) was 100%. For the same compound, the “Reduction of the population (%)” value (Penicillium digitatum [4]; [10]) was 100%, the “Reduction of the population (%)” value (Penicillium digitatum [4]; [11]) was 100% and the “Reduction of the population (%)” value (Penicillium digitatum [4]; [12]) was 100%. For the same compound, the “Reduction of the population (%)” value (Penicillium digitatum [4]; [13]) was 100%, the “Reduction of the population (%)” value (Penicillium digitatum [4]; [14]) was 100% and the “Reduction of the population (%)” value (Penicillium digitatum [4]; [15]) was 100%. The “Reduction of the population (%)” value (Penicillium expansum; [8]) was 68%, the “Reduction of the population (%)” value (Penicillium expansum; [9]) was 82% and the “Reduction of the population (%)” value (Penicillium expansum; [10]) was 45%. For the same compound, the “Reduction of the population (%)” value (Penicillium expansum; [11]) was 68%, the “Reduction of the population (%)” value (Penicillium expansum; [12]) was 73% and the “Reduction of the population (%)” value (Penicillium expansum; [13]) was 41%. The “Reduction of the population (%)” value (Penicillium expansum; [14]) was 36%, the “Reduction of the population (%)” value (Penicillium expansum; [15]) was 18% and the “% Reduction” value (Penicillium digitatum [5]; [16]) was 72%. For the same compound, the “% of fruit affected” value (Penicillium digitatum [5]; [16]) was 28%, the “% Reduction” value (Penicillium digitatum [5]; [17]) was 40% and the “% of fruit affected” value (Penicillium digitatum [5]; [17]) was 60%. For the same compound, the “% Reduction” value (Penicillium digitatum [5]; 1600 ppm, 14 days at 20° C.) was 0%, the “% of fruit affected” value (Penicillium digitatum [5]; 1600 ppm, 14 days at 20° C.) was 100% and the “% Reduction” value (Penicillium digitatum [5]; 1666 ppm, 7 days at 20° C.) was 23%. The “% of fruit affected” value (Penicillium digitatum [5]; 1666 ppm, 7 days at 20° C.) was 77%, the “% Reduction” value (Penicillium digitatum [5]; [18]) was 85% and the “% of fruit affected” value (Penicillium digitatum [5]; [18]) was 15%. For the same compound, the “% Reduction” value (Penicillium digitatum [5]; 2500 ppm, 7 days at 20° C.) was 53%, the “% of fruit affected” value (Penicillium digitatum [5]; 2500 ppm, 7 days at 20° C.) was 47% and the “% Reduction” value (Penicillium digitatum [5]; [19]) was 57%. For the same compound, the “% of fruit affected” value (Penicillium digitatum [5]; [19]) was 43%, the “% of fruit affected” value (Penicillium digitatum [5]; 2500 ppm, 14 days at 20° C.) was 36% and the “% Reduction” value (Penicillium italicum; [20]) was 80%. For the same compound, the “% of fruit affected” value (Penicillium italicum; [20]) was 20%, the “% Reduction” value (Penicillium italicum; 1600 ppm, 14 days at 20° C.) was 72% and the “% of fruit affected” value (Penicillium italicum; 1600 ppm, 14 days at 20° C.) was 28%. The “% of fruit affected” value (Penicillium italicum; 1666 ppm, 7 days at 20° C.) was 0%, the “% Reduction” value (Penicillium italicum; [21]) was 85% and the “% of fruit affected” value (Penicillium italicum; [21]) was 15%. The “% Reduction” value (Penicillium italicum; 2500 ppm, 7 days at 20° C.) was 100%, the “% of fruit affected” value (Penicillium italicum; 2500 ppm, 7 days at 20° C.) was 0% and the “% Reduction” value (Penicillium italicum; 2500 ppm, 14 days at 20° C.) was 85%. For the same compound, the “% of fruit affected” value (Penicillium italicum; 2500 ppm, 14 days at 20° C.) was 15%, the “Reduction of the population (%)” value ([6]; 750 ppm, Plastic container) was 97% and the “Reduction of the population (%)” value ([6]; 750 ppm, Wood container) was 97%. The “Reduction of the population (%)” value ([6]; 1050 ppm, Plastic container) was 98%, the “Reduction of the population (%)” value ([6]; 1050 ppm, Wood container) was 97% and the “phytotoxicity to the plant” value [7] was “did not suffer phytotoxicity”.

With CCCSS(=O)(=O)CCC [PTSO, Propyl Propyl Thiosulfonate] the “diameter of the microbial inhibition halo” value ([1]; 60 ppm) was 26 mm, the “diameter of the microbial inhibition halo” value ([1]; 125 ppm) was 33 mm and the “diameter of the microbial inhibition halo” value ([1]; 250 ppm) was 45 mm. The “diameter of the microbial inhibition halo” value ([1]; 500 ppm) was 45 mm, the “diameter of the microbial inhibition halo” value ([1]; 1000 ppm) was 45 mm and the “diameter of the microbial inhibition halo” value ([2]; 60 ppm) was 16 mm. The “diameter of the microbial inhibition halo” value ([2]; 125 ppm) was 17 mm, the “diameter of the microbial inhibition halo” value ([2]; 250 ppm) was 25 mm and the “diameter of the microbial inhibition halo” value ([2]; 500 ppm) was 25 mm. The “diameter of the microbial inhibition halo” value ([2]; 1000 ppm) was 27 mm, the “diameter of the microbial inhibition halo” value ([3]; 60 ppm) was 0 mm and the “diameter of the microbial inhibition halo” value ([3]; 125 ppm) was 12 mm. The “diameter of the microbial inhibition halo” value ([3]; 250 ppm) was 20 mm, the “diameter of the microbial inhibition halo” value ([3]; 500 ppm) was 30 mm and the “diameter of the microbial inhibition halo” value ([3]; 1000 ppm) was 40 mm. The “control of powdery mildew, as % of the effectiveness of the reference product” value (Leveillula taurica) was “slightly lower”, the “Reduction of the population (%)” value (Penicillium digitatum [4]; [22]) was 100% and the “Reduction of the population (%)” value (Penicillium digitatum [4]; [23]) was 100%. For the same compound, the “Reduction of the population (%)” value (Penicillium digitatum [4]; [24]) was 100%, the “Reduction of the population (%)” value (Penicillium digitatum [4]; [25]) was 100% and the “Reduction of the population (%)” value (Penicillium digitatum [4]; [26]) was 100%. For the same compound, the “Reduction of the population (%)” value (Penicillium digitatum [4]; [27]) was 100%, the “Reduction of the population (%)” value (Penicillium digitatum [4]; [28]) was 100% and the “Reduction of the population (%)” value (Penicillium digitatum [4]; [29]) was 100%. The “Reduction of the population (%)” value (Penicillium expansum; [22]) was 100%, the “Reduction of the population (%)” value (Penicillium expansum; [23]) was 100% and the “Reduction of the population (%)” value (Penicillium expansum; [24]) was 100%. For the same compound, the “Reduction of the population (%)” value (Penicillium expansum; [25]) was 100%, the “Reduction of the population (%)” value (Penicillium expansum; [26]) was 100% and the “Reduction of the population (%)” value (Penicillium expansum; [27]) was 100%. For the same compound, the “Reduction of the population (%)” value (Penicillium expansum; [28]) was 100%, the “Reduction of the population (%)” value (Penicillium expansum; [29]) was 85% and the “% Reduction” value (Penicillium digitatum [5]; [16]) was 72%. For the same compound, the “% Reduction” value (Penicillium digitatum [5]; [17]) was 40%, the “% Reduction” value (Penicillium digitatum [5]; [18]) was 85% and the “% Reduction” value (Penicillium digitatum [5]; [19]) was 57%. For the same compound, the “% Reduction” value (Penicillium italicum; [20]) was 80%, the “% Reduction” value (Penicillium italicum; [21]) was 85% and the “Reduction of the population (%)” value ([6]; 2000 ppm, Plastic container) was 94%. The “Reduction of the population (%)” value ([6]; 2000 ppm, Wood container) was 67%, the “Reduction of the population (%)” value ([6]; 5000 ppm, Plastic container) was 92% and the “Reduction of the population (%)” value ([6]; 5000 ppm, Wood container) was 70%. The “phytotoxicity to the plant” value [7] was “did not suffer phytotoxicity”.
